The text below walks through data of PubChem BioAssay AID1745844 (Carcinogenic Potency Database (CPDB), 2022).

Broadly, the TD50 is the 50% point of the dose-response relation for the toxic effect studied.

This series concerns rodent lifetime carcinogenesis bioassay, tumor incidence TD50. In words: carcinogenic potency in animals, long-term in vivo studies, CPDB compilation (AID 1745844).
The mark [1] stands for this setting: mouse, strain B6C3F1, males, in feed, site: any site (literature study), lesion: several types, types named in the paper, dosed 103 weeks, study length 105 weeks.
Setting [2] is: mouse, strain B6C3F1, females, in feed, site: any site (literature study), lesion: several types, types named in the paper, dosed 103 weeks, study length 104 weeks.
Setting [3] is: mouse, strain B6C3F1, females, in feed, site: lung, lesion: alveolar/bronchiolar adenoma + alveolar/bronchiolar carcinoma, dosed 103 weeks, study length 104 weeks.

Active and inactive are the calls of the source. The rule behind the calls is not given here.

Take `Nc1nc(N)nc(N)n1`: the carcinogen call (mouse, strain B6C3F1, females, in feed, site: any site (literature study), lesion: several types, types named in the paper, dosed 103 weeks, study length 105 weeks) is “negative (inactive)”. The TD50 by setting is: under setting [1], 3200 mg/kg/day (inactive); (mouse, strain B6C3F1, males, in feed, site: liver, lesion: hepatocellular adenoma + hepatocellular carcinoma + neoplastic nodule, dosed 103 weeks, study length 105 weeks) 4370 mg/kg/day; (rat, strain Fischer 344, females, in feed, site: any site (literature study), lesion: several types, types named in the paper, dosed 103 weeks, study length 105 weeks) 3930 mg/kg/day; (rat, strain Fischer 344, females, in feed, site: liver, lesion: hepatocellular adenoma + hepatocellular carcinoma + neoplastic nodule, dosed 103 weeks, study length 105 weeks) 4410 mg/kg/day; (rat, strain Fischer 344, females, in feed, site: thyroid gland, lesion: c-cell adenoma + c-cell carcinoma, dosed 103 weeks, study length 105 weeks) 2470 mg/kg/day (inactive); (rat, strain Fischer 344, females, in feed, site: thyroid gland, lesion: c-cell carcinoma, dosed 103 weeks, study length 105 weeks) 4160 mg/kg/day. The TD50 is, setting by setting: (rat, strain Fischer 344, males, in feed, site: any site (literature study), lesion: several types, types named in the paper, dosed 103 weeks, study length 105 weeks) 149 mg/kg/day; (rat, strain Fischer 344, males, in feed, site: urinary bladder, lesion: transitional-cell carcinoma + transitional-cell papilloma, dosed 103 weeks, study length 105 weeks) 679 mg/kg/day; (rat, strain Fischer 344, males, in feed, site: urinary bladder, lesion: transitional-cell carcinoma, dosed 103 weeks, study length 105 weeks) 735 mg/kg/day.
For the compound `NC(Cc1c[nH]c2ccccc12)C(=O)O` (centres undefined), the carcinogen call is “negative (inactive)” (rat, strain Fischer, males, in feed, site: liver, lesion: one or several types, types not named, dosed 98 weeks, study length 98 weeks) and “negative (inactive)” (rat, strain Fischer, males, in feed, site: urinary bladder, lesion: one or several types, types not named, dosed 98 weeks, study length 98 weeks).
As to `CCN(CC)c1ccc2c(-c3ccc(S(=O)(=O)O)cc3S(=O)(=O)[O-])c3ccc(=[N+](CC)CC)cc-3oc2c1`, the TD50 was 4100 mg/kg/day (inactive) (rat, strain F344/DuCrj, females, in feed, site: any site (literature study), lesion: several types, types named in the paper, dosed 106 weeks, study length 106 weeks) and 2350 mg/kg/day (inactive) (rat, strain F344/DuCrj, males, in feed, site: any site (literature study), lesion: several types, types named in the paper, dosed 106 weeks, study length 106 weeks). The carcinogen call is “negative (inactive)” (rat, strain F344/DuCrj, females, in feed, site: liver, lesion: one or several types, types not named, dosed 106 weeks, study length 106 weeks) and “negative (inactive)” (rat, strain F344/DuCrj, males, in feed, site: liver, lesion: neoplastic nodule, dosed 106 weeks, study length 106 weeks).
Consider `COc1ccc(N)c(OC)c1`, for which the TD50 under setting [2] is 986 mg/kg/day (inactive); the TD50 (mouse, strain B6C3F1, females, in feed, site: liver, lesion: hepatocellular adenoma + hepatocellular carcinoma + neoplastic nodule, dosed 103 weeks, study length 104 weeks) was 2790 mg/kg/day; the TD50 under setting [3] is 50600 mg/kg/day; the TD50 (mouse, strain B6C3F1, males, in feed, site: any site (literature study), lesion: several types, types named in the paper, dosed 103 weeks, study length 104 weeks) was 1650 mg/kg/day (inactive); the TD50 (mouse, strain B6C3F1, males, in feed, site: liver, lesion: hepatocellular adenoma + hepatocellular carcinoma + neoplastic nodule, dosed 103 weeks, study length 104 weeks) was determined as 1390 mg/kg/day. Moreover, the carcinogen call reads like this: (rat, strain Fischer 344, females, in feed, site: any site (literature study), lesion: several types, types named in the paper, dosed 104 weeks, study length 105 weeks) “negative (inactive)”; (rat, strain Fischer 344, males, in feed, site: any site (literature study), lesion: several types, types named in the paper, dosed 104 weeks, study length 105 weeks) “negative (inactive)”.
In the case of `CCCOC(=O)c1cc(O)c(O)c(O)c1`, the TD50 is 21400 mg/kg/day (mouse, strain B6C3F1, females, in feed, site: liver, lesion: hepatocellular adenoma + hepatocellular carcinoma + neoplastic nodule, dosed 103 weeks, study length 105 weeks); 8260 mg/kg/day (inactive) (mouse, strain B6C3F1, females, in feed, site: liver, lesion: hepatocellular adenoma, dosed 103 weeks, study length 105 weeks); 44300 mg/kg/day (mouse, strain B6C3F1, females, in feed, site: lung, lesion: alveolar/bronchiolar adenoma + alveolar/bronchiolar carcinoma, dosed 103 weeks, study length 105 weeks); 15100 mg/kg/day (mouse, strain B6C3F1, males, in feed, site: all sites, lesion: lymphoma, histiocytic type, dosed 103 weeks, study length 105 weeks); 6540 mg/kg/day (inactive) (mouse, strain B6C3F1, males, in feed, site: all sites, lesion: lymphoma, dosed 103 weeks, study length 105 weeks); 12100 mg/kg/day (mouse, strain B6C3F1, males, in feed, site: all sites, lesion: malignant lymphoma, dosed 103 weeks, study length 105 weeks). The TD50 under setting [1] worked out at 3640 mg/kg/day; the TD50 (mouse, strain B6C3F1, males, in feed, site: lung, lesion: alveolar/bronchiolar adenoma + alveolar/bronchiolar carcinoma, dosed 103 weeks, study length 105 weeks) stood at 55600 mg/kg/day; the TD50 (rat, strain Fischer 344, females, in feed, site: mammary gland, lesion: adenoma, dosed 103 weeks, study length 105 weeks) is 8080 mg/kg/day (inactive); the TD50 (rat, strain Fischer 344, males, in feed, site: adrenal gland, lesion: pheochromocytoma + pheochromocytoma, malignant, dosed 103 weeks, study length 105 weeks) was determined as 613 mg/kg/day; the TD50 (rat, strain Fischer 344, males, in feed, site: adrenal gland, lesion: pheochromocytoma, dosed 103 weeks, study length 105 weeks) came to 613 mg/kg/day; the TD50 (rat, strain Fischer 344, males, in feed, site: pancreatic islets, lesion: islet-cell adenoma + islet-cell carcinoma, dosed 103 weeks, study length 105 weeks) came to 840 mg/kg/day. The TD50 was 749 mg/kg/day (inactive) (rat, strain Fischer 344, males, in feed, site: pancreatic islets, lesion: islet-cell adenoma, dosed 103 weeks, study length 105 weeks); 1040 mg/kg/day (rat, strain Fischer 344, males, in feed, site: preputial gland, lesion: adenocarcinoma + adenoma + carcinoma, dosed 103 weeks, study length 105 weeks); 6870 mg/kg/day (rat, strain Fischer 344, males, in feed, site: thyroid gland, lesion: follicular-cell adenoma + follicular-cell carcinoma, dosed 103 weeks, study length 105 weeks). In addition, the carcinogen call (rat, strain F344/DuCrj, males, in feed, site: esophagus, lesion: one or several types, types not named, dosed 52 weeks, study length 52 weeks) was “negative (inactive)”; the carcinogen call (rat, strain F344/DuCrj, males, in feed, site: forestomach, lesion: one or several types, types not named, dosed 52 weeks, study length 52 weeks) is “negative (inactive)”; the carcinogen call (rat, strain F344/DuCrj, males, in feed, site: liver, lesion: one or several types, types not named, dosed 52 weeks, study length 52 weeks) was “negative (inactive)”.
Take `C[C@](N)(Cc1ccc(O)c(O)c1)C(=O)O`: the carcinogen call was “negative (inactive)” under setting [2] and “negative (inactive)” (rat, strain Fischer 344, males, in feed, site: any site (literature study), lesion: several types, types named in the paper, dosed 103 weeks, study length 104 weeks). The TD50 under setting [3] turned out to be 25000 mg/kg/day; the TD50 (mouse, strain B6C3F1, males, in feed, site: kidney, lesion: tubular-cell adenoma + tubular-cell adenocarcinoma, dosed 103 weeks, study length 104 weeks) came out at 20100 mg/kg/day; the TD50 (rat, strain Fischer 344, females, in feed, site: any site (literature study), lesion: several types, types named in the paper, dosed 103 weeks, study length 104 weeks) was 592 mg/kg/day (inactive).
For the compound `CN(C#N)N=O`, the TD50 was 1.17 mg/kg/day (rat, strain Sprague-Dawley, females, in drinking water, site: forestomach, lesion: carcinoma, dosed 60 weeks, study length 95 weeks) and 0.48 mg/kg/day (rat, strain Sprague-Dawley, females, in drinking water, site: forestomach, lesion: several types, types named in the paper, dosed 60 weeks, study length 95 weeks).
On to `CCCCCCCCCCCCCCN(C)N=O`, for which the carcinogen call (rat, strain Fischer 344, males, by gavage, site: any site (literature study), lesion: several types, types named in the paper, dosed 30 weeks, study length 102 weeks) is “positive” and the carcinogen call (rat, strain Fischer 344, males, by gavage, site: urinary bladder, lesion: transitional-cell carcinoma, dosed 30 weeks, study length 102 weeks) is “positive”. The TD50 was 60.5 mg/kg/day (rat, strain Fischer 344, males, by gavage, site: lung, lesion: adenocarcinoma, dosed 30 weeks, study length 102 weeks) and 29.4 mg/kg/day (rat, strain Fischer 344, males, by gavage, site: lung, lesion: adenoma, dosed 30 weeks, study length 102 weeks).
Regarding `Nc1ccc(S(=O)(=O)c2ccc(N)cc2)cc1`, the carcinogen call runs as follows: (mouse, strain B6C3F1, females, in feed, site: any site (literature study), lesion: several types, types named in the paper, dosed 78 weeks, study length 107 weeks) “negative (inactive)”; (mouse, strain B6C3F1, males, in feed, site: any site (literature study), lesion: several types, types named in the paper, dosed 78 weeks, study length 107 weeks) “negative (inactive)”; (rat, strain Fischer 344, females, in feed, site: any site (literature study), lesion: several types, types named in the paper, dosed 78 weeks, study length 105 weeks) “negative (inactive)”. Moreover, the TD50 by setting is: (rat, strain Fischer 344, males, in feed, site: all sites, lesion: lymphoma, dosed 78 weeks, study length 104 weeks) 50.1 mg/kg/day; (rat, strain Fischer 344, males, in feed, site: any site (literature study), lesion: several types, types named in the paper, dosed 78 weeks, study length 104 weeks) 22.4 mg/kg/day; (rat, strain Fischer 344, males, in feed, site: peritoneum, lesion: fibrosarcoma + sarcoma, NOS, dosed 78 weeks, study length 104 weeks) 56.3 mg/kg/day; (rat, strain Fischer 344, males, in feed, site: peritoneum, lesion: fibrosarcoma, dosed 78 weeks, study length 104 weeks) 148 mg/kg/day; (rat, strain Fischer 344, males, in feed, site: peritoneum, lesion: sarcoma, NOS, dosed 78 weeks, study length 104 weeks) 91.3 mg/kg/day; (rat, strain Fischer 344, males, in feed, site: spleen, lesion: fibroma, dosed 78 weeks, study length 104 weeks) 28.5 mg/kg/day. Also, the TD50 (rat, strain Fischer 344, males, in feed, site: spleen, lesion: fibrosarcoma + fibroma + sarcoma, NOS, dosed 78 weeks, study length 104 weeks) is 22.4 mg/kg/day; the TD50 (rat, strain Fischer 344, males, in feed, site: spleen, lesion: fibrosarcoma, dosed 78 weeks, study length 104 weeks) is 167 mg/kg/day; the TD50 (rat, strain Fischer 344, males, in feed, site: spleen, lesion: sarcoma, NOS, dosed 78 weeks, study length 104 weeks) was 170 mg/kg/day.
